According to US11389537B2, “Drug delivery system for sustained delivery of bioactive agents” (UPM-Kymmene Corporation, priority 2011, dated 2022):
In brackets after ≈: the same amount, converted by molar mass. Counter-ions that a name gives are not always drawn. Like-named read-outs stand apart in the source and are kept apart here.

Key:
[1] = cited from earlier work
[2] = Stability in water solution of tested drugs; format: physicochemical
Source text: (§1) NFC has strong affinity to water, which makes drying it difficult. The residence time in the spray-drying chamber is short and therefore high temperature needs to be used in drying. If lower temperature and/or higher feeding rates were to be used, the wet material would adhere to the chamber. The application of high temperature when spray drying the aqueous suspension of NFC containing an API, increases the risk of degradation of the API during the drying process. High temperature is also a limitation for the choice of the API if its melting point is low (Table 11, showing the values of melting point (Tm), water solubility and stability in water solution of tested drugs). Generally, particles reach a maximum temperature during spraying, which is 15-20° C. below the outlet temperature of a co-current dryer.

[3] = Contact angle between matrix surface and water drop; conditions: water drop on matrix surface or pure drug
[4] = Solubility in water of tested drugs; format: physicochemical; conditions: value obtained from testing
Source text: as §1, with “dryer. During the particle production outlet temperatures were in the range of 120-127° C., which was sufficient for successful drying.” for “dryer.”

Compound: CC(C)Cc1ccc(C(C)C(=O)O)cc1 (stereo not shown) [Ibuprofen, ibuprofen]
- Solubility (50 mM NH4OH) ([1]; 50 mM NH4OH): 6000 µg/mL (≈ 29.1 mM)

Compound: COc1ccc2c(c1)c(CC(=O)O)c(C)n2C(=O)c1ccc(Cl)cc1 [Indomethacin, indomethacin]
- Stability in water solution (21° C.) ([2]; pH 7.4, obtained from testing): *pH 7.4 up to 4 days
- Solubility in water [1]: <1 µg/mL
- Solubility in water (words) [1]: ↑ with ↑ pH
- Solubility in water ([1]; line below '↑ with ↑ pH'): <1000 µg/mL
- Contact angle [3]: 76.7

Compound: COCCc1ccc(OCC(O)CNC(C)C)cc1 (stereo not shown) [Metoprolol tartrate, metoprolol tartrate]
- Stability in water solution (21° C.) ([2]; obtained from testing): *up to 60 days
- Solubility in water (words) [1]: freely

Compound: CC(C)(C)NCC(O)COc1cccc2c1CC(O)C(O)C2 (stereo not shown) [Nadolol, nadolol]
- solubility [4]: 6770 µg/mL (≈ 21.9 mM)
- Stability in water solution (21° C.) ([2]; obtained from testing): *up to 30 days
